We go through 14 molecules from ChEMBL document CHEMBL1909046, “DrugMatrix in vitro pharmacology data”.

As usually defined, the IC50 is the concentration needed to halve the response being measured. Broadly, the Ki is a dissociation constant, usually derived from enzyme kinetics or from competition with a known ligand.

Data set [1] concerns the target 5-hydroxytryptamine receptor 1B (Rattus norvegicus, UniProt P28564). It counts as cell membranes, Wistar, Cerebral cortex, Membrane.
The target of data set [2] is T1, Muscarinic acetylcholine receptor M4 (Homo sapiens, UniProt P08173).
T1 sequence (P08173 whole entry): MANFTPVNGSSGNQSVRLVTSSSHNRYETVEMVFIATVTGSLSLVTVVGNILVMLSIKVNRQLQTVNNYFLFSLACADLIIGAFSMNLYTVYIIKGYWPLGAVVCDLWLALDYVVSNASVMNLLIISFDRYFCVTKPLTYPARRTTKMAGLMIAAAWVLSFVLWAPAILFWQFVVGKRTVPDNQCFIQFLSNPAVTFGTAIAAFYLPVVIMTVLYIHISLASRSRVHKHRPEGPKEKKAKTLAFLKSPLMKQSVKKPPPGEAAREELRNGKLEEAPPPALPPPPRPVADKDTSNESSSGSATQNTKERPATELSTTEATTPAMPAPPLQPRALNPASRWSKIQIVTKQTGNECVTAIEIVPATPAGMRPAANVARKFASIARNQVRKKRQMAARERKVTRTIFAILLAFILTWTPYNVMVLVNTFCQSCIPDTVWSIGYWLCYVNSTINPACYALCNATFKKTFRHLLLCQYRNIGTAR
It counts as cell membranes, CHO-K1, Membrane.

Another data set addresses Insulin receptor (Rattus norvegicus, UniProt P15127). The class given is cell membranes, Wistar, Liver, Membrane.
In the next data set the target is Cytochrome P450 2E1 (Homo sapiens, UniProt P05181). The note with it: bti-tn-5b1-4.
Sequence of Cytochrome P450 2E1 (P05181 whole entry): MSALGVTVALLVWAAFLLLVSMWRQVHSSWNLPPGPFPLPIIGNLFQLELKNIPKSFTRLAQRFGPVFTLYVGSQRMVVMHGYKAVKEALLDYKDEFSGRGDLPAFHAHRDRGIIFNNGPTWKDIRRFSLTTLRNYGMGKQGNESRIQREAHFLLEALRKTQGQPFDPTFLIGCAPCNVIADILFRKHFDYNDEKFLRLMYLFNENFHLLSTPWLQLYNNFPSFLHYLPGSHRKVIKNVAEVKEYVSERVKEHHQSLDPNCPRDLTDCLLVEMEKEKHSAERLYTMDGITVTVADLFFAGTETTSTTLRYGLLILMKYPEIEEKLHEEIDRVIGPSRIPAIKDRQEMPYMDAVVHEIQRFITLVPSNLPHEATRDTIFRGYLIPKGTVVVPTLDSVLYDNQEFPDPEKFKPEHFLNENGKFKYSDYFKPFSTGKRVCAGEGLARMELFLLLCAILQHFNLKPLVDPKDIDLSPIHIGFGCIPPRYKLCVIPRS
In another data set the target is Glycine receptor (Rattus norvegicus, UniProt P22771+P24524+P07727+P20781). The class given is cell membranes, Wistar, Spinal cord, Membrane.
Data set [3] addresses T2, Receptor-type tyrosine-protein phosphatase C (Homo sapiens, UniProt P08575).
T2 sequence (P08575 whole entry): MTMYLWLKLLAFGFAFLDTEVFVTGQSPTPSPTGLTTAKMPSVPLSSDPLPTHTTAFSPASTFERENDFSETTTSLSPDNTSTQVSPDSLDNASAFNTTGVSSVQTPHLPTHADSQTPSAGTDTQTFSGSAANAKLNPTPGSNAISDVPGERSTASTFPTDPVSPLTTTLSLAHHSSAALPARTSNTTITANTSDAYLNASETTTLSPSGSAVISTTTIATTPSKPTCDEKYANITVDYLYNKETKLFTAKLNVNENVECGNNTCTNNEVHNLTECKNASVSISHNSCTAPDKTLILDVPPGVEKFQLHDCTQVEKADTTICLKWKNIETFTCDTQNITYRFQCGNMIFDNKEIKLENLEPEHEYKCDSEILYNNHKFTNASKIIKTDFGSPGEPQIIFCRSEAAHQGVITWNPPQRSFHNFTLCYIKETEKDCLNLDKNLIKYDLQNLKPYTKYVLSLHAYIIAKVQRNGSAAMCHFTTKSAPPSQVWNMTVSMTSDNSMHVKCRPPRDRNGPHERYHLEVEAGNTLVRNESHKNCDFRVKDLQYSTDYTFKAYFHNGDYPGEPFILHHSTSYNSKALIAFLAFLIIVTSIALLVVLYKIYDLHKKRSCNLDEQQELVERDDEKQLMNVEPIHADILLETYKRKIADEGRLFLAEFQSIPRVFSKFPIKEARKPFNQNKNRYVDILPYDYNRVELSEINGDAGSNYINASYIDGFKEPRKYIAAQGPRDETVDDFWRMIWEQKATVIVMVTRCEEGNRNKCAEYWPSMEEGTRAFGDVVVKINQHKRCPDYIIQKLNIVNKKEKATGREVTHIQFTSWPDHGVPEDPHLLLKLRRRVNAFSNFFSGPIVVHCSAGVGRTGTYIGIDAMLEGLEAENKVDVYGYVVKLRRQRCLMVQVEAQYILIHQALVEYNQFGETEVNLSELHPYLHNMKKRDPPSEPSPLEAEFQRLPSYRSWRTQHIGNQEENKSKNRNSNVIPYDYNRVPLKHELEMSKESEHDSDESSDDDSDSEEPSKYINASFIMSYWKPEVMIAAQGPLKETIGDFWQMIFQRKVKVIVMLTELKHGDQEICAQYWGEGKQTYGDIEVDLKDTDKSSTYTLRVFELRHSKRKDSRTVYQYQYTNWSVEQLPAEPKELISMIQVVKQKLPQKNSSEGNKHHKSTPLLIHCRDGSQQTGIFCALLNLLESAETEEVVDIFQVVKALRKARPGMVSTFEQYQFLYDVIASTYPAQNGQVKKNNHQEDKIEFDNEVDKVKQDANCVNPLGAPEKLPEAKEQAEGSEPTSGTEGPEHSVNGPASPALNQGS
Also noted: species or system Escherichia coli.

Data set [4] addresses T3, C-C chemokine receptor type 4 (Homo sapiens, UniProt P51679).
T3 sequence (P51679 whole entry): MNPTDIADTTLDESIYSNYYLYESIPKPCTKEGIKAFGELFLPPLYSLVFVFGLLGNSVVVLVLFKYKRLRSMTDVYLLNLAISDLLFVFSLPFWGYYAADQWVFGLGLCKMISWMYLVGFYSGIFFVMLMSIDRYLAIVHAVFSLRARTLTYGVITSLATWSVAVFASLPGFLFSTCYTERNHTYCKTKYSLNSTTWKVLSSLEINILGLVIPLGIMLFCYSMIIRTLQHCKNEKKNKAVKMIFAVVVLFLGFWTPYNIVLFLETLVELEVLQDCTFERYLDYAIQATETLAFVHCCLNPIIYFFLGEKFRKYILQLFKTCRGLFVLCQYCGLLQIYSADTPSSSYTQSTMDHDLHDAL
It counts as cell membranes, Membrane. Particulars: chem-1.

The target in data set [5] is T4, Cysteinyl leukotriene receptor 1 (Homo sapiens, UniProt Q9Y271).
T4 sequence (Q9Y271 whole entry): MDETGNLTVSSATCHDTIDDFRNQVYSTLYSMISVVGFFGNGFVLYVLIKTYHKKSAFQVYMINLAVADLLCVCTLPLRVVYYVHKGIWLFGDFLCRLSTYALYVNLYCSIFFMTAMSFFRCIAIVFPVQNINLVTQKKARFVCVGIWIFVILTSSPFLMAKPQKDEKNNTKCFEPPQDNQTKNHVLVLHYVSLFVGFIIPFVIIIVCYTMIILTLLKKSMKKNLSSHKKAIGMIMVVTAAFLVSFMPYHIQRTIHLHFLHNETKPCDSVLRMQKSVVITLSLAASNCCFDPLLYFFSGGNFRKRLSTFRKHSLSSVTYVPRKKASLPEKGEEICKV
The class given is cell membranes, Membrane. The note with it: cho-k1.
Further: in other assays of this panel Not Active means under 50% inhibition at 10 µM.

Sequence of Insulin receptor (P15127 27-759 limits assumed): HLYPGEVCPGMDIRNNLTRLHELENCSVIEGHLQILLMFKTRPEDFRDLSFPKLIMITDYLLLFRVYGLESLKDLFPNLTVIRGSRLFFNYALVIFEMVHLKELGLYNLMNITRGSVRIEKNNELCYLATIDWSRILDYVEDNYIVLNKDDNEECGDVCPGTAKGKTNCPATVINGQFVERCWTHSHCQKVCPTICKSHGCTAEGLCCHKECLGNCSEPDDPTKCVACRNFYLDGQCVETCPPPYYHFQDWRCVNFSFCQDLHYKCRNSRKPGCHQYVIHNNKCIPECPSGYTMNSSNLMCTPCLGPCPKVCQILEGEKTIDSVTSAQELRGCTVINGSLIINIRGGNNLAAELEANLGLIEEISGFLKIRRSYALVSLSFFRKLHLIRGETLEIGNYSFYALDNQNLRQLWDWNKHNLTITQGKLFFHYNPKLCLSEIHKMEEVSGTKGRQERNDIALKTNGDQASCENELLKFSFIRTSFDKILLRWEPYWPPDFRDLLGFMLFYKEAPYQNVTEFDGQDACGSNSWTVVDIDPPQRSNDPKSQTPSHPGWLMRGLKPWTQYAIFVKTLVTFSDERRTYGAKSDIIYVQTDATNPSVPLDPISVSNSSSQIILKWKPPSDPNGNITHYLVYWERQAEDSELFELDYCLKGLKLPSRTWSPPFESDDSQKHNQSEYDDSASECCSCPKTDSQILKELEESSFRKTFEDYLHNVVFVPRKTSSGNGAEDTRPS
Sequence of Insulin receptor (P15127 764-1383 limits assumed): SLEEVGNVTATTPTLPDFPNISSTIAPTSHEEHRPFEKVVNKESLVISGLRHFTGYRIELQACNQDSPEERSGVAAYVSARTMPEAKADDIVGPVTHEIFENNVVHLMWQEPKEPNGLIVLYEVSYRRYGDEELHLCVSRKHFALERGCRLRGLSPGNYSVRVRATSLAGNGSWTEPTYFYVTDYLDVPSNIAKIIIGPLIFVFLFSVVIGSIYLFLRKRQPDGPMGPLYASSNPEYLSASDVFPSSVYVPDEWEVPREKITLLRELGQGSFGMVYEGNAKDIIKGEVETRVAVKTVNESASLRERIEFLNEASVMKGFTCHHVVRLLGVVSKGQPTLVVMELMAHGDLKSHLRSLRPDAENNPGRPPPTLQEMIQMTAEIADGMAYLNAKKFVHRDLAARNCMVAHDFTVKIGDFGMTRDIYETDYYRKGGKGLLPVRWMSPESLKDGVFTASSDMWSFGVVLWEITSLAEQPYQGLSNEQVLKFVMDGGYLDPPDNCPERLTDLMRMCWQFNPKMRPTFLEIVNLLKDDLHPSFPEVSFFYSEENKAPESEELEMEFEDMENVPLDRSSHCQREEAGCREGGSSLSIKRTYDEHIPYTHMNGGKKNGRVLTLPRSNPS
Sequence of 5-hydroxytryptamine receptor 1B (P28564 whole entry): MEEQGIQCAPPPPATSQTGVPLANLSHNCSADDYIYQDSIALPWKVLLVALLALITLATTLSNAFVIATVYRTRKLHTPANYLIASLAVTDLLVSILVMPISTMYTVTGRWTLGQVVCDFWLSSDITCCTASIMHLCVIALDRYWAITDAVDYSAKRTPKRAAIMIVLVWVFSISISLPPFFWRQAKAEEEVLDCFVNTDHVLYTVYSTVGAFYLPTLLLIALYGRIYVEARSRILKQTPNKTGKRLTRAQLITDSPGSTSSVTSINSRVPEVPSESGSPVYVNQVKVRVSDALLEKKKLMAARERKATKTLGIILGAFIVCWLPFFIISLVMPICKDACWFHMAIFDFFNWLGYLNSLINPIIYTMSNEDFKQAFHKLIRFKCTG

Take `CCCCC(=O)N(Cc1ccc(-c2ccccc2-c2nnn[nH]2)cc1)[C@H](C(=O)O)C(C)C`: the IC50 result (in data set [1]; in data set [2] (cho-k1); against Insulin receptor; against Cytochrome P450 2E1; on Glycine receptor; in data set [3]) was “Not Active” in each case. Moreover, the IC50 result in data set [4] and in data set [5] was “Not Active” in each case. For the same molecule, the Ki result on Cytochrome P450 2E1 is “Not Active”.
Consider `O=C(O)COc1ccc(C(=O)c2cccs2)c(Cl)c1Cl`, for which the IC50 result (in data set [1]; in data set [2] (cho-k1); at Insulin receptor; against Cytochrome P450 2E1; at Glycine receptor; in data set [3]) was “Not Active” in each case. Moreover, the IC50 entry in data set [4] and in data set [5] was “Not Active” throughout. Besides, the Ki result on Cytochrome P450 2E1 is “Not Active”.
`CN1[C@@H]2CC[C@H]1C[C@@H](OC(c1ccccc1)c1ccccc1)C2` [BENZTROPINE]: the IC50 entry (in data set [1]; against Insulin receptor; at Cytochrome P450 2E1; against Glycine receptor; in data set [3]; in data set [4]) was “Not Active” throughout. The IC50 result in data set [5] is given as “Not Active”. In addition, the Ki result at Cytochrome P450 2E1 is on record as “Not Active”.
As for `C[C@@](Cc1ccc(O)c(O)c1)(NN)C(=O)O.O` [CARBIDOPA], the IC50 result (in data set [1]; in data set [2] (cho-k1); against Insulin receptor; on Cytochrome P450 2E1; against Glycine receptor; in data set [3]) was “Not Active” each time. For the same molecule, the IC50 result in data set [4] and in data set [5] was “Not Active” throughout. The Ki result at Cytochrome P450 2E1 is reported as “Not Active”.
For the molecule `CN1CCN(C2=Nc3cc(Cl)ccc3Nc3ccccc32)CC1` [CLOZAPINE], the IC50 result (against Insulin receptor; against Cytochrome P450 2E1; against Glycine receptor; in data set [3]; in data set [4]; in data set [5]) was “Not Active” each time. The Ki result on Cytochrome P450 2E1 was “Not Active”.
As for `CC(C)NC[C@@H](O)COc1cccc2ccccc12` [DEXPROPRANOLOL], the IC50 entry (in data set [1]; in data set [2] (cho-k1); on Insulin receptor; on Cytochrome P450 2E1; at Glycine receptor; in data set [3]) was “Not Active” in each case. The IC50 result in data set [4] and in data set [5] was “Not Active” in each case. Besides, the Ki entry on Cytochrome P450 2E1 is recorded as “Not Active”.
Regarding `CC(C)NC[C@H](O)COc1cccc2ccccc12` [LEVOPROPRANOLOL], the IC50 entry (in data set [1]; in data set [2] (cho-k1); against Insulin receptor; against Cytochrome P450 2E1; against Glycine receptor; in data set [3]) was “Not Active” throughout. Further, the IC50 result in data set [4] and in data set [5] was “Not Active” each time. For the same molecule, on Cytochrome P450 2E1, the Ki entry was “Not Active”.
With `O=C(O)CCCCC1CCSS1` (stereo not drawn) [LIPOIC ACID, ALPHA], the IC50 entry (in data set [1]; in data set [2] (cho-k1); on Insulin receptor; against Cytochrome P450 2E1; against Glycine receptor; in data set [3]) was “Not Active” in each case. In addition, the IC50 result in data set [4] and in data set [5] was “Not Active” each time. Besides, the Ki result on Cytochrome P450 2E1 is “Not Active”.
Turning to `CN(C)C(=O)C(CCN1CCC(O)(c2ccc(Cl)cc2)CC1)(c1ccccc1)c1ccccc1` [LOPERAMIDE], the IC50 result (in data set [1]; in data set [2] (cho-k1); on Insulin receptor; at Cytochrome P450 2E1; against Glycine receptor; in data set [3]) was “Not Active” each time. The IC50 result in data set [4] and in data set [5] was “Not Active” each time. The Ki entry on Cytochrome P450 2E1 was “Not Active”.
With `Clc1ccc(COC(Cn2ccnc2)c2ccc(Cl)cc2Cl)c(Cl)c1` (centres undefined) [MICONAZOLE], the IC50 in data set [1] (read-out: IC50) was 20.6 µM; in data set [2] (read-out: IC50) it was 3.2 µM; at Insulin receptor, “Not Active”; against Cytochrome P450 2E1, “Not Active”; against Glycine receptor it was “Not Active”; in data set [3] it was “Not Active”. Besides, the IC50 entry in data set [4] and in data set [5] was “Not Active” each time. Further, the results for the Ki (in data set [1] (read-out: Ki); in data set [2] (read-out: Ki); at Cytochrome P450 2E1) were 9.36 µM, 0.446 µM and “Not Active”, respectively.
With `Oc1ccc2c3c1O[C@H]1[C@@H](O)CC[C@@]4(O)[C@@H](C2)N(CC2CCC2)CC[C@]314` [NALBUPHINE], the IC50 entry (in data set [1]; in data set [2] (cho-k1); on Insulin receptor; at Glycine receptor; in data set [3]; in data set [4]) was “Not Active” throughout. Also, the IC50 entry in data set [5] was “Not Active”.
Consider `C[C@]12C=CC(=O)C=C1CC[C@@H]1[C@@H]2C(=O)C[C@@]2(C)[C@H]1CC[C@]2(O)C(=O)CO` [PREDNISONE], for which the IC50 result (in data set [1]; in data set [2] (cho-k1); against Insulin receptor; on Glycine receptor; in data set [3]; in data set [4]) was “Not Active” in each case. Moreover, in data set [5], the IC50 result is recorded as “Not Active”.
Regarding `OCCOCCN1CCN(C2=Nc3ccccc3Sc3ccccc32)CC1` [QUETIAPINE], the IC50 entry (in data set [1]; against Insulin receptor; against Cytochrome P450 2E1; against Glycine receptor; in data set [3]; in data set [4]) was “Not Active” each time. In data set [5], the IC50 entry is on record as “Not Active”. Further, the Ki entry on Cytochrome P450 2E1 is recorded as “Not Active”.
Take `O=C1C[C@@H]2OCC=C3CN4CC[C@]56c7ccccc7N1[C@H]5[C@H]2[C@H]3C[C@H]46` [STRYCHNINE]: the 50% inhibitory concentration (IC50) result (in data set [1]; in data set [2] (cho-k1); at Insulin receptor; against Cytochrome P450 2E1; in data set [3]; in data set [4]) was “Not Active” throughout. Also, in data set [5], the IC50 entry was “Not Active”. The Ki result at Cytochrome P450 2E1 was “Not Active”.
